Legend:
[1] = target: T1, human alpha 1a adrenergic receptor (Homo sapiens, UniProt P35348); experiment: Screening assay: alpha 1a adrenergic receptor binding ([125I]-HEAT competition); conditions: membranes from stably transfected human alpha 1a cell line (ATCC CRL 11140), 100 pM [125I]-HEAT
T1 sequence (P35348 1-466): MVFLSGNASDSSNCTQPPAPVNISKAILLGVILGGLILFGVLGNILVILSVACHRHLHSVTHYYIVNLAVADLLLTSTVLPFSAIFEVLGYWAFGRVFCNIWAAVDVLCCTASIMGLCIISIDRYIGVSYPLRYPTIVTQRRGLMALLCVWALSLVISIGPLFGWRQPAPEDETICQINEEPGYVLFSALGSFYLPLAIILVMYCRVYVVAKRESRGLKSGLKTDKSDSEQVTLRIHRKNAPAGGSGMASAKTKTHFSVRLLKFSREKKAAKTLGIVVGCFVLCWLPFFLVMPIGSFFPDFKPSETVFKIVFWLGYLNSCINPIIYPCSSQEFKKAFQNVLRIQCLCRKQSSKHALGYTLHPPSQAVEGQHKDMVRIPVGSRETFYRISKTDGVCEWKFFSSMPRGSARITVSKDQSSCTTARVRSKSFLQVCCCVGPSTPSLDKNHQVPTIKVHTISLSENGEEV
Experimental: Screening Assay: Alpha 1a Adrenergic Receptor Binding
These competition binding reactions (total volume=200 μl) contained 50 mM Tris-HCl pH. […] Reactions were incubated at room temperature for one hour with shaking. Reactions were filtered onto Whatman GF/C glass fiber filters with a Inotec 96 well cell harvester. Filters were washed three times with ice cold buffer and bound radioactivity was determined (Ki).

Structure (SMILES) | melting point [°C] | Ki [1] [nM]
N#CC1(c2ccccc2)CCN(CCCN2C(=O)NC(c3ccccc3)(c3ccccc3)C2=O)CC1 [Compound 15, 3-[3-(4-phenyl-4-cyanopiperidin-1-yl)propyl]-5,5-bis(phenyl)-imidazolin-2,4-dione] | 161 to 163 | < 20
Cc1ccc(C2(c3ccc(C)cc3)NC(=O)N(CCCN3CCC4(CCc5ccccc54)CC3)C2=O)cc1 [Compound 18, 3-{3-(2,3-dihydro-spiro[indeno-1,4′-piperidin]-1′yl)propyl}-5,5-bis(4-methylphenyl)-imidazolin-2,4-dione] | 170 to 172 | < 20
Cc1ccc(C2(c3ccc(C)cc3)NC(=O)N(CCCCN3CCC4(CC3)C(=O)Cc3ccccc34)C2=O)cc1 [Compound 19, 3-{4-(2,3-dihydro-spiro[indeno-1,4′-piperidin]-2(3H)-on-1′-yl)butyl}-5,5-bis(4-methylphenyl)-imidazolin-2,4-dione] | 76 to 88 | < 20
Cc1ccc(C2(c3ccc(C)cc3)NC(=O)N(CCCN3CCC4(CC3)Cc3ccccc3C4=O)C2=O)cc1 [Compound 20, 3-{3-(2,3-dihydro-spiro[indeno-2,4′-piperidin]-1(2H)-on-1-yl)propyl}-5,5-bis(4-methylphenyl)-imidazolin-2,4-dione] | 201 to 205 | < 20
Cc1ccc(C2(c3ccc(C)cc3)NC(=O)N(CCCN3CCC4(CC3)C(=O)N(C)c3ccccc34)C2=O)cc1 [Compound 22, 3-{3-(1-methyl-spiro[3H-indole-3,4′piperidin]-2(1H)-on-1′-yl)propyl}-5,5-bis(4-methylphenyl)-imidazolin-2,4-dione] | 127 to 135 | < 20

Further lines, with some results ahead:

melting point [°C] | Structure (SMILES) | Ki [1] [nM]
164 to 165 | Cc1ccc(C2(c3ccc(C)cc3)NC(=O)N(CCCN3CCC(C#N)(c4ccccc4C)CC3)C2=O)cc1 [Compound 2, 3-{3-[4-(2-Methylphenyl)-4-cyanopiperidin-1-yl]propyl}-5,5-bis(4-methylphenyl)-imidazolin-2,4-dione] | < 20
63 to 65 | CCOC(=O)CN1C(=O)N(CCCN2CCC(C#N)(c3ccccc3C)CC2)C(=O)C1(c1ccc(C)cc1)c1ccc(C)cc1 [Compound 35, 1 -Ethoxycarbonylmethyl-3-{3-[4-(2-methylphenyl)-4-cyanopiperidin-1-yl]propyl}bis-5,5-(4-methylphenyl)-imidazolin-2,4-dione] | –
